The record followed here is ChEMBL document CHEMBL4706686, “Design, synthesis and biological evaluation of dihydrofurocoumarin derivatives as potent neuraminidase inhibitors” (Bioorg Med Chem Lett, 2021).

The experiment in a line: Inhibition of Influenza virus H5N1 neuraminidase. More on the design: species or system H5N1 subtype.

The compound `CCCOc1ccc(/C=C2\Oc3ccc4c(C)cc(=O)oc4c3C2=O)cc1` returned an IC50 of 45.8 µM.
Take `CCOC(=O)C1=C[C@@H](OC(CC)CC)[C@H](NC(C)=O)[C@@H](N)C1` [OSELTAMIVIR]: the IC50 was determined as 0.1 µM.
`Cc1cc(=O)oc2c3c(ccc12)O/C(=C\c1ccccn1)C3=O` yielded an IC50 of 39.5 µM. Compared with the last compound, the IC50 is about 400-fold higher.
`Cc1cc(=O)oc2c3c(ccc12)O/C(=C\c1cc([N+](=O)[O-])ccc1F)C3=O`: the IC50 is 99.8 µM.
`CCOc1cc(/C=C2\Oc3ccc4c(C)cc(=O)oc4c3C2=O)ccc1O`: the IC50 was 30 µM.
The same measure for `CCC(CC)O[C@@H]1C=C(C(=O)O)C[C@H](N)[C@H]1NC(C)=O` [OSELTAMIVIR CARBOXYLATE]: 0.04 µM.
`Cc1cc(=O)oc2c3c(ccc12)O/C(=C\c1ccc([N+](=O)[O-])c(O)c1)C3=O`: the IC50 was 0.03 µM.
`Cc1cc(=O)oc2c3c(ccc12)O/C(=C\c1ccc(Cl)cc1Cl)C3=O` came in with an IC50 of 36.2 µM. Compared with the last compound, the IC50 is about 1200-fold higher.
In the case of `COc1ccc(/C=C2\Oc3ccc4c(C)cc(=O)oc4c3C2=O)cc1O`, the IC50 amounted to 0.04 µM. This IC50 is about 900-fold lower than that of the compound before.
Compound `Cc1cc(=O)oc2c3c(ccc12)O/C(=C\c1ccc(O)c([N+](=O)[O-])c1)C3=O` came in with an IC50 of 0.02 µM.
On to `COc1cc(/C=C2\Oc3ccc4c(C)cc(=O)oc4c3C2=O)cc(OC)c1O`, for which the IC50 turned out to be 0.15 µM.
Take `Cc1cc(=O)oc2c3c(ccc12)O/C(=C\c1ccc(OS(C)(=O)=O)cc1)C3=O`: inhibition was half-maximal at 32.4 µM (IC50).
